The values below come from patent US12636290B2, “BET inhibitors for modulating DUX4 expression in FSHD” (Saint Louis University, priority 2018, dated 2026).

As a reminder, the IC50 is the concentration that inhibits the measured activity by half.

In the test the test system is DUX4 expression (surrogate marker MBD3L2). As to the kind of experiment: Screening: qPCR analysis of DUX4 target gene MBD3L2 in differentiating MB200 FSHD2 muscle cells. It is filed as cell-based. The settings on record: Homo sapiens, 40 hours, DUX4 expression inferred from surrogate marker MBD3L2 expression (qPCR, normalized to RPL30). Here is the method: Cells and Cell Culture. Primary human myoblast cell lines, immortalized by retroviral transduction of cyclin-dependent kinase 4 (CDK4) and human telomerase reverse transcriptase (hTERT) (Stadler, et al., 2011), were obtained from the Fields Center at the University of Rochester (world-wide-web at urmc.rochester.edu/fields-center.aspx). Immortalized myoblasts were grown in Ham's F-10 Nutrient Mix (Gibco, Waltham, MA, USA) supplemented with 20% HyClone Fetal Bovine Serum (GE Healthcare Life Sciences, Pittsburgh, PA, USA), 100 U/100 μg penicillin/streptomycin (Gibco), 10 ng/ml recombinant human fibroblast growth factor (Promega Corporation, Madison, WI, USA) and 1 μM dexamethasone (Sigma-Aldrich). Differentiation of myoblasts into myotubes was achieved by switching the fully confluent myoblast monolayer into Dulbecco's Modified Eagle Medium (DMEM) (Gibco) containing 1% horse serum (Gibco), 100 U/100 μg penicillin/streptomycin, 10 μg/ml insulin (Sigma-Aldrich) and 10 μg/ml transferrin (Sigma-Aldrich) (HS/IT media) or DMEM:F12 Nutrient Mixture (1:1, Gibco) supplemented with 2% KnockOut Serum Replacement (Gibco), 100 U/100 μg penicillin/streptomycin, 10 μg/ml insulin and 10 μg/ml transferrin (KSR media) for 2-6 days.
Screening: qPCR analysis of DUX4 target genes MBD3L2. For screening compounds, differentiating MB200 FSHD2 muscle cells were exposed to BET inhibitors at a variety of concentrations for 40 hours to determine the effects of the drugs on DUX4 expression. Cell lysates were prepared using Cells-to-Ct Bulk Lysis Reagents (Invitrogen, Waltham, MA, USA). Gene expression was measured by quantitative polymerase chain reaction (qPCR) was carried out on a QuantStudio 5 (Applied Biosystems, Waltham, MA, USA) using TaqMan Gene Expression Assays (Applied Biosystems) and TaqMan Fast Virus 1-Step Master Mix (Invitrogen). The relative expression levels of DUX4 target gene methyl-CpG binding domain protein 3 like 2 (MBD3L2), was normalized to that of the reference gene ribosomal protein L30 (RPL30), which was included in multiplex (two gene) PCR reactions. TaqMan Gene Expression Assay ID numbers: MBD3L2, Hs00544743_m1; RPL30, Hs00265497_m1. Data is expressed as relative expression with the expression in absence of inhibitors set to one.
Analysis of MBD3L2 expression in cultured FSHD2 cells. DUX4 mRNA is present in very low levels, even in differentiating FSHD2 myoblasts, so DUX4 target gene MBD3L2 was used as a surrogate marker of DUX4 expression. FSHD2 patient derived muscle cells were analyzed to determine whether BET inhibitors affect MBD3L2 expression, indicating a reduction in DUX4 expression.
A general note: Real-time PCR tracks product formation cycle by cycle.

Counter-ions that a name gives are not always drawn. Like-named read-outs stand apart in the source and are kept apart here.

Take `C[C@@H]1C(=O)N(C)CCN1CCOc1cccc(-c2ccc3cc(-c4cn(C)c(=O)c5[nH]ccc45)ccc3n2)c1` [SLU-2301, (R)-4-{2-[3-(2-(2,4-dimethyl-3-oxopiperazin-1-yl)ethoxy)phenyl]quinolin-6-yl}-6-methyl-1H-pyrrolo[2,3-c]pyridin-7(6H)-one]: the IC50 (read-out: DUX4* MT FSHD2: IC50) is 13 nM and the IC50 (read-out: DUX4* MT FSHD2 IC50) came out at 13 nM.
Consider `Cn1cc(-c2ccc(N3CCC4(CCNCC4)CC3)nc2)c2cc[nH]c2c1=O` [SLU-2130, 4-[6-(3,9-diazaspiro[5.5]undecan-3-yl)pyridin-3-yl]-6-methyl-1H-pyrrolo[2,3-c]pyridin-7(6H)-one·hydrochloride], for which the IC50 runs as follows: (read-out: DUX4* MT FSHD2: IC50) 120 nM; (read-out: DUX4* MT FSHD2 IC50) 120 nM.
On to `C[C@@H]1C(=O)N(C)CCN1CCOc1ccc(-c2ccc3nc(-c4cn(C)c(=O)c5[nH]ccc45)ccc3c2)cn1` [SLU-2235, (R)-4-{6-[6-(2-(2,4-dimethyl-3-oxopiperazin-1-yl)ethoxy)pyridin-3-yl]quinolin-2-yl}-6-methyl-1H-pyrrolo[2,3-c]pyridin-7(6H)-one], for which the IC50 (read-out: DUX4* MT FSHD2: IC50) stood at 12 nM and the IC50 (read-out: DUX4* MT FSHD2 IC50) came to 12 nM.
Take `C[C@@H]1C(=O)N(C)CCN1CCOc1ccc(-c2ccc3nc(-c4cn(C)c(=O)c5[nH]ccc45)ccc3c2)cc1` [SLU-2112, (R)-4-{6-[4-(2-(2,4-dimethyl-3-oxopiperazin-1-yl)ethoxy)phenyl]quinolin-2-yl}-6-methyl-1H-pyrrolo[2,3-c]pyridin-7(6H)-one]: the IC50 runs as follows: (read-out: DUX4* MT FSHD2: IC50) 40 nM; (read-out: DUX4* MT FSHD2 IC50) 40 nM.
Consider `Cn1cc(-c2ccc3nc(-c4ccc(OCCN5CCC(F)(F)CC5)cc4)ccc3c2)c2cc[nH]c2c1=O` [SLU-2285, 4-{2-[4-(2-(4,4-difluoropiperidin-1-yl)ethoxy)phenyl]quinolin-6-yl}-6-methyl-1H-pyrrolo[2,3-c]pyridin-7(6H)-one], for which the IC50 is 570 nM (read-out: DUX4* MT FSHD2: IC50) and 570 nM (read-out: DUX4* MT FSHD2 IC50).
As to `CN1CCN(CCOc2ccc(-c3ccc4cc(-c5cn(C)c(=O)c6[nH]ccc56)ccc4n3)cc2)C(C)(C)C1=O` [SLU-2241, 6-methyl-4-{2-[4-(2-(2,2,4-trimethyl-3-oxopiperazin-1-yl)ethoxy)phenyl]quinolin-6-yl}-1H-pyrrolo[2,3-c]pyridin-7(6H)-one], the half-maximal inhibitory concentration (IC50) by setting is: (read-out: DUX4* MT FSHD2: IC50) 110 nM; (read-out: DUX4* MT FSHD2 IC50) 110 nM.
On to `CCn1cc(-c2ccc3cc(-c4ccc(OCCN5CCN(C)C(=O)[C@H]5C)cc4)ccc3n2)c2cc[nH]c2c1=O` [SLU-2295, (R)-4-{6-[4-(2-(2,4-dimethyl-3-oxopiperazin-1-yl)ethoxy)phenyl]quinolin-2-yl}-6-ethyl-1H-pyrrolo[2,3-c]pyridin-7(6H)-one], for which the IC50 was 51 nM (read-out: DUX4* MT FSHD2: IC50) and 51 nM (read-out: DUX4* MT FSHD2 IC50).
In the case of `CC(=O)N1C[C@@H](C)N(CCOc2ccc(-c3ccc4cc(-c5cn(C)c(=O)c6[nH]ccc56)ccc4n3)cc2)[C@@H](C)C1` [SLU-2107, 4-{2-[4-(2-((2R,6S)-4-acetyl-2,6-dimethylpiperazin-1-yl)ethoxy)phenyl]quinolin-6-yl}-6-methyl-1H-pyrrolo[2,3-c]pyridin-7(6H)-one], the IC50 came to 48 nM (read-out: DUX4* MT FSHD2: IC50) and 48 nM (read-out: DUX4* MT FSHD2 IC50).
As to `Cn1cc(-c2ccc(N3CCC(c4ccc(OCCn5cncn5)cc4)CC3)nc2)c2cc[nH]c2c1=O` [SLU-2119, 4-{6-[4-(4-(2-(1H-1,2,4-triazol-1-yl)ethoxy)phenyl)piperidin-1-yl]pyridin-3-yl}-6-methyl-1H-pyrrolo[2,3-c]pyridin-7(6H)-one], the 50% inhibitory concentration (IC50) reads like this: (read-out: DUX4* MT FSHD2: IC50) 130 nM; (read-out: DUX4* MT FSHD2 IC50) 130 nM.
For `C[C@@H]1C(=O)N(C)CCN1CCOc1ccc(-c2ccc(-c3cn(C)c(=O)c4[nH]ccc34)cc2)cc1` [SLU-2097, (R)-4-{4′-[2-(2,4-dimethyl-3-oxopiperazin-1-yl)ethoxy]-[1,1′-biphenyl]-4-yl}-6-methyl-1H-pyrrolo[2,3-c]pyridin-7(6H)-one], the IC50 (read-out: DUX4* MT FSHD2: IC50) amounted to 120 nM and the half-maximal inhibitory concentration (IC50) (read-out: DUX4* MT FSHD2 IC50) was 120 nM.
For the compound `Cn1cc(-c2ccc3nc(-c4ccc(OCCN5CCNC(=O)C5)cc4)ccc3c2)c2cc[nH]c2c1=O` [SLU-2242, 6-methyl-4-{2-[4-(2-(3-oxopiperazin-1-yl)ethoxy)phenyl]quinolin-6-yl}-1H-pyrrolo[2,3-c]pyridin-7(6H)-one], the IC50 came out at 93 nM (read-out: DUX4* MT FSHD2: IC50) and 93 nM (read-out: DUX4* MT FSHD2 IC50).
For `C=CCn1cc(-c2ccc3cc(-c4ccc(OCCN5CCN(C)C(=O)[C@H]5C)cc4)ccc3n2)c2cc[nH]c2c1=O` [SLU-2326, (R)-6-allyl-4-{6-[4-(2-(2,4-dimethyl-3-oxopiperazin-1-yl)ethoxy)phenyl]quinolin-2-yl}-1H-pyrrolo[2,3-c]pyridin-7(6H)-one], the IC50 is, setting by setting: (read-out: DUX4* MT FSHD2: IC50) 130 nM; (read-out: DUX4* MT FSHD2 IC50) 130 nM.
With `CCn1cc(-c2ccc3nc(-c4ccc(OCCN5CCN(C)C(=O)[C@H]5C)cc4)ccc3c2)c2cc[nH]c2c1=O` [SLU-2296, (R)-4-{2-[4-(2-(2,4-dimethyl-3-oxopiperazin-1-yl)ethoxy)phenyl]quinolin-6-yl}-6-ethyl-1H-pyrrolo[2,3-c]pyridin-7(6H)-one], the IC50 (read-out: DUX4* MT FSHD2: IC50) is 58 nM and the IC50 (read-out: DUX4* MT FSHD2 IC50) amounted to 58 nM.
Consider `C[C@@H]1C(=O)N(C)CCN1CCOc1ccc2cc(-c3cn(C)c(=O)c4[nH]ccc34)ccc2n1` [SLU-2348, (R)-4-{2-[2-(2,4-dimethyl-3-oxopiperazin-1-yl)ethoxy]quinolin-6-yl}-6-methyl-1H-pyrrolo[2,3-c]pyridin-7(6H)-one], for which the IC50 (read-out: DUX4* MT FSHD2: IC50) came to 140 nM and the IC50 (read-out: DUX4* MT FSHD2 IC50) came to 140 nM.
Take `C[C@@H]1C(=O)N(C)CCN1CCOCC(=O)N1CCC2(CC1)CCN(c1ccc(-c3cn(C)c(=O)c4[nH]ccc34)cn1)CC2` [SLU-2225, (R)-4-{6-[9-(2-(2-(2,4-dimethyl-3-oxopiperazin-1-yl)ethoxy)acetyl)-3,9-diazaspiro[5.5]undecan-3-yl]pyridin-3-yl}-6-methyl-1H-pyrrolo[2,3-c]pyridin-7(6H)-one]: the IC50 (read-out: DUX4* MT FSHD2: IC50) stood at 35 nM and the IC50 (read-out: DUX4* MT FSHD2 IC50) is 35 nM.
Turning to `COc1cc(N2CCC(c3ccc(OCCN4CCN(C)C(=O)[C@H]4C)cc3)CC2)ncc1-c1cn(C)c(=O)c2[nH]ccc12` [SLU-2111, (R)-4-{6-[4-(4-(2-(2,4-dimethyl-3-oxopiperazin-1-yl)ethoxy)phenyl)piperidin-1-yl]-4-methoxypyridin-3-yl}-6-methyl-1,6-dihydro-7H-pyrrolo[2,3-c]pyridin-7-one], the IC50 by setting is: (read-out: DUX4* MT FSHD2: IC50) 29 nM; (read-out: DUX4* MT FSHD2 IC50) 29 nM.
For the compound `CC(C)CCOc1ccc(C2CCN(c3ccc(-c4cn(C)c(=O)c5[nH]ccc45)cn3)CC2)cc1` [SLU-2124, 4-{6-[4-(4-(isopentyloxy)phenyl)piperidin-1-yl]pyridin-3-yl}-6-methyl-1H-pyrrolo[2,3-c]pyridin-7(6H)-one], the IC50 by setting is: (read-out: DUX4* MT FSHD2: IC50) 1300 nM; (read-out: DUX4* MT FSHD2 IC50) 1300 nM.
Regarding `C=CCn1cc(-c2ccc3nc(-c4ccc(OCCN5CCN(C)C(=O)[C@H]5C)cc4)ccc3c2)c2cc[nH]c2c1=O` [SLU-2293, (R)-6-allyl-4-{2-[4-(2-(2,4-dimethyl-3-oxopiperazin-1-yl)ethoxy)phenyl]quinolin-6-yl}-1H-pyrrolo[2,3-c]pyridin-7(6H)-one], the IC50 was determined as 18 nM (read-out: DUX4* MT FSHD2: IC50) and 18 nM (read-out: DUX4* MT FSHD2 IC50).
Take `C[C@@H]1C(=O)N(C)CCN1CCOc1ccc(-c2ccc3cc(-c4cn(C)c(=O)c5[nH]ccc45)ccc3n2)cn1` [SLU-2240, (R)-4-{2-[6-(2-(2,4-dimethyl-3-oxopiperazin-1-yl)ethoxy)pyridin-3-yl]quinolin-6-yl}-6-methyl-1,6-dihydro-7H-pyrrolo[2,3-c]pyridin-7-one]: the IC50 (read-out: DUX4* MT FSHD2: IC50) was determined as 35 nM and the IC50 (read-out: DUX4* MT FSHD2 IC50) is 35 nM.
